Legend:
[1] = tested on: log phase NDM-1 Klebsiella pneumoniae (NCTC 13443 strain); test: Time-kill of suloctidil and colistin, alone and in combination, against log phase NDM-1 Klebsiella pneumoniae; format: cell-based; settings: for kill effect (CFU counts): colistin alone 16 μg/ml, FIG. 19
Method: The synergistic effect of suloctidil in combination with colistin was tested against log phase NDM-1 Klebsiella pneumoniae using time-kill methods over a period of 24 hours.
Bacterial strain used: NCTC 13443 strain of NDM-1 Klebsiella pneumoniae
Growth of bacteria: Log phase growth of the bacteria was carried out according to methods known in the art.
(§1) (i) Suloctidil was obtained from a commercial source and dissolved in DMSO to make a stock concentration of 10 mg/ml.
(§2) (ii) Colistin was obtained from a commercial source at a concentration of 20 mg/ml.
Both suloctidil and colistin were then added to 96 well plates either alone or in the combinations shown below in Table 1.
(§3) The overnight culture was diluted with nutrient broth (Oxoid) to 10^7 CFU/ml and 280 μl and 290 μl of the culture was added to each combination well and single agent well, respectively, to make a final […] of 300 μl. Incubation of the compounds with the bacterial suspension was carried out for 24 hours. At 0, 2, 4, 7 and 25 hours, CFU counts were performed to measure the kill effects of the drug combination.

[2] = tested on: log phase NDM-1 E. coli (BAA2469 strain); test: Time-kill of suloctidil and colistin, alone and in combination, against log phase NDM-1 E. coli; format: cell-based; settings: FIGS. 28 to 34
Method: Materials and Methods • Bacterial strain used: BAA2469 strain of NDM-1 E. coli • Growth of bacteria: Log phase growth of bacteria was carried out according to methods known in the art.
as §1, §2
Both suloctidil and colistin were then added to 96 well plates either alone or in the combinations shown below in Table 2.
as §3

## colistin
[1]; after 7 hours
  kill effect (CFU counts): complete kill
[1]; after 25 hours
  kill effect (CFU counts): bacteria re-growth
[1]; colistin alone at 8 and 4 μg/ml, time-kill, FIGS. 20, 21, 24, 25 and 27
  antimicrobial effect when used alone: no antimicrobial effect
[1]; colistin alone at 32 and 16 μg/ml, time-kill
  duration of the antimicrobial effect: not long term
[1]; colistin alone at 32 and 16 μg/ml, time-kill, FIGS. 18, 19, 22, 23 and 26
  antimicrobial effect when used alone: antimicrobial effect
[2]; colistin alone at 8, 4, 2 and 1 μg/ml
  antimicrobial effect when used alone: no antimicrobial effect

## CCCCCCCCNC(C)C(O)c1ccc(SC(C)C)cc1 (centres unmarked) [suloctidil]
[1]; suloctidil alone at 32, 16, 8 and 4 μg/ml, time-kill, FIGS. 18 to 27
  antimicrobial effect when used alone: no antimicrobial effect
[2]; suloctidil alone at 16, 8 and 4 μg/ml
  antimicrobial effect when used alone: no antimicrobial effect
